From US7217413B1, “Use of novel agents inducing cell death in synergy with interferons” (priority 1998, dated 2007) come the findings set out here.

Residues, ends and D or L forms follow the SMILES beside them. *: point of attachment. Cbz = O=C(OCc1ccccc1)*; CH2F = FC*

Test [1] relates to REF (T) PML cells. As to the kind of experiment: TUNEL test of cell death triggered by PML (ZnCl2 induction). Type of test: cell-based, rat. Here is the method:
(§1) The REF (T) and MEF (T) cells are rat and mouse embryonic fibroblasts immortalized by an SV4DT expression vector. […] For clonogenicity tests, the cells were transfected with 10 μg of SRαtkneo-PML or SRαkneo on culture dishes 10 cm in diameter and selected with neomycin (500 μg/ml). To obtain inducible clones, a pool of RET (T) cells was cotransfected with the plasmid pKSmMt-PML and a hygromycin resistance vector (DSP-Hygro). The resistant colonies were examined for the expression of PML after four hours of treatment with ZnCl2 (150 μM) and subjected to a second cycle of cloning by limiting dilution. Inducible CHO clones were constructed in a similar manner. The monocytes were prepared according to the method of Estaquier et al., 1997. Etoposide (used at 100 μM for 16 to 24 hours) was obtained from Biomol Research Laboratories, zVAD (benzyloxycarbonyl-Val-Ala-Asp fluoromethyl ketone, used at 250 μg/ml) is marketed by Bachem and rat IFNα by Access BioMedical. The human α-interferon was provided by Schering-Plough. The antibodies against the human PML protein are described in the article by Daniel et al., 1993. The Western blot experiments with the endogenous rat PML protein were carried out with the monoclonal antibody 5E10 which detects both rat PML and human PML.
The cells were treated for 2 hours with 150 μM of ZnCl2 (unless otherwise stated) in the presence or absence of heat-inactivated foetal calf serum, and then the cells were washed and incubated in a ZnCl2-free medium. The TUNEL test was carried out according to the manufacturer's instructions (Boehringer Mannheim, kit for detection of cell death in situ), with the exception of the fixing step (4% formaldehyde in phosphate PBS buffer for 10 minutes). The cellular DNA content was evaluated by incubating for 10 minutes in propidium iodide at 50 μg/ml, in the presence of Rnase A at 100 μg/ml at 4° C. […] The samples were analysed on a FACScan analyser (Lysis II software, Becton Dickinson). […] After centrifugation, 20 μl of supernatant and 180 μl of reaction buffer (100 mM Hepes, pH 7.4, 2% of glycerol, 5 mM DTT, 0.5 mM EDTA, 50 μM DEVD-pNA (Biomol Research Laboratories)) were mixed and the absorbence at 405 nm was measured after incubating for four hours at 37° C. […]
It is known that the execution of programmed cell death involves the proteolytic activation—of caspases which induce the phenotypic changes in apoptosis by cleavage of nuclear and cytoplasmic proteins (Salvesen et al., 1997). […] Unlike etoposide, no significant cleavage of the colorimetric caspase substrates, YVAD-pNa (class 1 caspase, Boehringer Mannheim) and DEVD-pNA (class 3 caspase, Boehringer Mannheim) after induction with PML could be detected (FIG. 2B).

Test [2] relates to REF (T) PML cells. Kind of test: Kinetics of synchronized cell death after ZnCl2 induction of PML. Type of test: cell-based, rat. Here is the method: The cells were treated for 2 hours with 150 μM of ZnCl2 (unless otherwise stated) in the presence or absence of heat-inactivated foetal calf serum, and then the cells were washed and incubated in a ZnCl2-free medium. The TUNEL test was carried out according to the manufacturer's instructions (Boehringer Mannheim, kit for detection of cell death in situ), with the exception of the fixing step (4% formaldehyde in phosphate PBS buffer for 10 minutes). The cellular DNA content was evaluated by incubating for 10 minutes in propidium iodide at 50 μg/ml, in the presence of Rnase A at 100 μg/ml at 4° C. Analysis of the expression of phosphatidylserine on the outer sheet of the cell membranes was carried out using Annexin-V-fluos labelling (Boehringer Mannheim) and a loss of mitochondrial polarity with Rhodamin 123 (molecular probes) according to the manufacturer's instructions. The samples were analysed on a FACScan analyser (Lysis II software, Becton Dickinson). […] After centrifugation, 20 μl of supernatant and 180 μl of reaction buffer (100 mM Hepes, pH 7.4, 2% of glycerol, 5 mM DTT, 0.5 mM EDTA, 50 μM DEVD-pNA (Biomol Research Laboratories)) were mixed and the absorbence at 405 nm was measured after incubating for four hours at 37° C. […]

Test [3] has as its system REF (T) PML cells. Kind of test: TUNEL test of cell death induced by IFNα. The conditions noted are these: for cell death evaluated by TUNEL (positive TUNEL signal): with 1 000 U/ml of IFNα. Type of test: cell-based, rat. Here is the method:
as §1
The cells were treated for 2 hours with 150 μM of ZnCl2 (unless otherwise stated) in the presence or absence of heat-inactivated foetal calf serum, and then the cells were washed and incubated in a ZnCl2-free medium. The TUNEL test was carried out according to the manufacturer's instructions (Boehringer Mannheim, kit for detection of cell death in situ), with the exception of the fixing step (4% formaldehyde in phosphate PBS buffer for 10 minutes). The cellular DNA content was evaluated by incubating for 10 minutes in propidium iodide at 50 μg/ml, in the presence of Rnase A at 100 μg/ml at 4° C. Analysis of the expression of phosphatidylserine on the outer sheet of the cell membranes was carried out using Annexin-V-fluos labelling (Boehringer Mannheim) and a loss of mitochondrial polarity with Rhodamin 123 (molecular probes) according to the manufacturer's instructions. The samples were analysed on a FACScan analyser (Lysis II software, Becton Dickinson). For the cleavage of the substrate with caspases, 5×10^6 cells were washed in PBS buffer, and incubated for one hour at 4° C. in 200 μl of lysis buffer (10 mM Hepes, pH 7.4, 2 mM EDTA, 2 mM DTT, 0.1% CHAPS). After centrifugation, 20 μl of supernatant and 180 μl of reaction buffer (100 mM Hepes, pH 7.4, 2% of glycerol, 5 mM DTT, 0.5 mM EDTA, 50 μM DEVD-pNA (Biomol Research Laboratories)) were mixed and the absorbence at 405 nm was measured after incubating for four hours at 37° C. The anti-PARP polyclonal antibody SA-252 is marketed by Biomol Research Laboratories.
The table below represents the cell death, evaluated by TUNEL, of REF (T) PML cells treated for two days with 1 000 U/ml of IFNα and 10^−6 M of As2O3 or of zVAD.

A further test relates to Primary monocytes. As to the kind of experiment: Survival of primary monocytes exposed to α-interferon. Type of test: cell-based.
The next test deals with PML protein. As to the kind of experiment: Western blot of PML protein expression and location on nuclear bodies. Type of test: cell-based, rat. The conditions noted are these: REF (T) cells. A general note: Immunoblotting shows a protein as a band on a membrane.
Where [4] appears, read: treated for two days, 10^-6 M of As2O3 or of zVAD.

Experimental for PML protein: The REF (T) and MEF (T) cells are rat and mouse embryonic fibroblasts immortalized by an SV4DT expression vector. […] The Western blot experiments with the endogenous rat PML protein were carried out with the monoclonal antibody 5E10 which detects both rat PML and human PML.

Consider `[Cl-].[Cl-].[Zn+2]` [ZnCl2], for which the “positive cells / positive TUNEL signal” value in the test on REF (T) PML cells [1] (ZnCl2 alone) is reported as 45%. In addition, the “time to synchronized cell death of the whole cell population” value in the test on REF (T) PML cells [2] (50 μM of ZnCl2) is 48 h; in the test on REF (T) PML cells [2] (150 μM of ZnCl2), “six”.
As to IFNα, the “kinetics of cell death induction” value in the test on REF (T) PML cells [3] (compared with ZnCl2 induction) is “same kinetics as 50 μM ZnCl2”. Further, the “cell death evaluated by TUNEL (positive TUNEL signal)” value was found to be 42% with REF (T) PML cells [3] (setting [4]) and 42% in the test on REF (T) PML cells [3] (treated for two days, 10^-6 M of As2O3 or of zVAD, listed as α-interferon). In addition, in the test on Primary monocytes (α-interferon alone (1 000 U/ml)), the “time to complete disappearance of the cell culture” value is listed as “seven”. In addition, the “levels of expression of PML” value in the test with PML protein is listed as “induces rat PML”.
As to `COC(=O)C[C@H](NC(=O)[C@H](C)NC(=O)[C@@H](NC(=O)OCc1ccccc1)C(C)C)C(=O)CF` [zVAD, benzyloxycarbonyl-Val-Ala-Asp(O-methyl) fluoromethyl ketone] (Cbz-Val-Ala-Asp(OMe)-CH2F), the “effect on cell death induced by PML” value in the test with REF (T) PML cells [1] (ZnCl2 induction, FIG. 1C) is on record as “does not inhibit cell death induced by PML”. Besides, the “effect on apoptosis induced by etoposide” value with REF (T) PML cells [1] (etoposide-treated cells, FIG. 1C) is reported as “blocks apoptosis induced by etoposide”. In the test on REF (T) PML cells [1] (zVAD and ZnCl2), the “positive TUNEL signal” value was determined as 71%. For the same compound, the “cell death evaluated by TUNEL (positive TUNEL signal)” value in the test on REF (T) PML cells [3] (setting [4]) is given as 60%. In addition, the “cell death evaluated by TUNEL” value in the test on REF (T) PML cells [3] (without IFNα, treated for two days, 10^-6 M of As2O3 or of zVAD) was 5%. The “time to death of the whole cell population” value in the test on Primary monocytes (zVAD added with α-interferon) is not above 24 h. The “cell death with zVAD alone” value in the test with Primary monocytes (zVAD alone after seven days, three cultures out of eleven) is recorded as “induced the death of part of the culture”; in the test with Primary monocytes (zVAD alone for 20 days, most of the primary cultures (8/11)) it was “Little or no cell death”. Also, in the test on PML protein, the “levels of expression of PML” value is “increased”.
